The text below walks through data of patent US5872126A, “Methods and compositions for treating preterm labor” (priority 1997, dated 1999).

Data set [1] has as its system parturition in mice homozygous for genetic null mutations of type 1 5α-reductase. The following applies: mice homozygous for type 1 5α-reductase null mutations; cited from earlier work.
A further data set concerns parturition in the rat. Briefly: Parturition with test compound and progesterone antagonist RU-486 (Example 3). To be noted: RU-486 10 mg/kg on GD 21 (Group 2). It is filed as in vivo, Sprague-Dawley rat. The method, then: In order to determine if the effects in the experiments conducted in Examples 1 and 2 were due to decreased progesterone catabolism associated with inhibition of 5α-reductase by the 5α-reductase type 1 inhibitor 3-oxo-4-aza-4,7β-dimethyl-16β-(4-chlorophenoxy)-5α-androstane ("test compound"), the following study was performed with the 5α-reductase inhibitor 3-oxo-4-aza-4,7β-dimethyl-16β-(4-chlorophenoxy)-5α-androstane and the progesterone antagonist RU-486.
Fifty-six pregnant female Sprague-Dawley rats (Charles River Laboratories, Raleigh, N.C.), approximately 10.5 weeks old weighing from 212 to 319 grams were employed in the study. They were fed and housed as described in EXAMPLE 1. The females were assigned to the following groups based on a weight independent random allocation scheme:
Control (Control article)
test compound @ 20 mg/kg/day
A dose of 10 mg/kg off RU-486 was selected based on the studies of Abdellilah et al., Progesterone and Mifepristone modify principally the response of circular myometrium to oxytocin in preparturient rats: comparison with response to acetylcholine and to calcium J. Pharmacol. and Exp. Therp.
The drugs were administered by oral gavage. The control article and vehicle consisted of 0.5% methylcellulose in deionized water with 0.02% sodium lauryl sulfate (SLS) and were prepared on a weekly basis and refrigerated when not in use. The test compound formulation (4 mg/mL, in vehicle) was prepared on a weekly basis and was refrigerated when not in use. The RU-486 formulation (2 mg base compound/mL, in 0.5% methylcellulose in deionized water) was prepared on a daily basis.

Data set [2] relates to parturition in pregnant rats. To be noted: oral dose 10 mg/kg on GD 21; rats treated with 200 mg/kg progesterone subcutaneously; cited from earlier work.
For data set [3] the following is noted: cited from earlier work; for side effects: human, in vivo.
The test system of another data set is human type 2 enzyme. The following applies: cited from earlier work.
The next data set addresses T1, rat type 2 5α-reductase (Rattus norvegicus, UniProt P31214).
T1 construct: made in house; host or cells: COS cells
T1 sequence (P31214 1-254): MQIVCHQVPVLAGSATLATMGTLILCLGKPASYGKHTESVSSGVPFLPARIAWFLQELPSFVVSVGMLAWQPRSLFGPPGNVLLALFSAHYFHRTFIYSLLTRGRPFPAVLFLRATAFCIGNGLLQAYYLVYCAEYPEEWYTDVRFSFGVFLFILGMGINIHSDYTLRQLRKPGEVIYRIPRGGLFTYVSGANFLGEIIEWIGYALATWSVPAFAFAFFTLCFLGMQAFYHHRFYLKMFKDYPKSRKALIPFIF
Briefly: 5α-reductase assay, COS cell expressed rat type 2. It is filed as biochemical. To be noted: read-out: IC50 finasteride. The method, then: (§1) Rat placenta was obtained from Bioproducts for Science. The tissue was homogenized in 10 volumes of buffer containing 0.25 sucrose, 40 mM potassium phosphate pH 6.5, 5 mM magnesium sulfate, 25 mM potassium chloride, 1 mM phenylmethylsulfonyl fluoride, and 1 mM dithiothreitol using a Potter Elverhjem homogenizer. The homogenate was centrifuged at 100,000×g for 60 minutes at 4° C. The pellet was resuspended in 1.5 volumes of buffer. Glycerol was added to the resuspended pellet to a final concentration of 20%. COS cell expressed rat 5α-reductase was used as the source of type 1 and type 2 in these studies for comparison.
(§2) All samples in the enzyme assay were tested in a reaction mixture containing 33 mM succinic acid, 44 mM imidazole, 33 mM diethanolamine (SID), pH 5.5 and pH 7.5, 0.5 μM [7-^3 H]-testosterone (specific activity approximately 20-30 Ci/mmol), 1.5 μM unlabeled testosterone, 1 mM DTT and […] NADPH in a final volume of […]. The assay was initiated by the addition of enzyme and incubated at 37° C. for 15 min.

The target in the next data set is T2, rat type 1 5α-reductase (Rattus norvegicus, UniProt P24008).
T2 construct: made in house; host or cells: COS cells
T2 sequence (P24008 1-259): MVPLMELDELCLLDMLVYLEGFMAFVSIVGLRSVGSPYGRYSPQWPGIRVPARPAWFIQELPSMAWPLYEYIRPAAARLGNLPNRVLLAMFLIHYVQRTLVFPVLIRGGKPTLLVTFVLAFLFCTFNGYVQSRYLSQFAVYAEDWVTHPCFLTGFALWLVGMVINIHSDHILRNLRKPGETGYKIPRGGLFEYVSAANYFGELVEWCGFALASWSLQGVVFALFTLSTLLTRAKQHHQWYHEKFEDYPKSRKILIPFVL
Briefly: 5α-reductase assay, COS cell expressed rat type 1. It is filed as biochemical. To be noted: recombinant rat type 1; read-out: IC50 finasteride. The method, then: as §1, §2

In data set [4] the target is T3, 5α-reductase in rat placenta (Rattus norvegicus, UniProt P24008).
T3 construct: microsomes prepared from rat placenta; tissue Bioproducts for Science; host or cells: rat placenta (microsomes, 100,000×g pellet of homogenate)
T3 sequence (P24008 1-259): T2 sequence (P24008 1-259)
Briefly: 5α-reductase assay, rat placenta microsomes. It is filed as biochemical. The following applies: read-out: IC50 finasteride. How it is done:
(§3) The 5α-reductase content of microsomes prepared from rat placenta was determined.
as §1, §2

The subject of data set [5] is pregnancy and myometrial contractile activity in the rat. The following applies: exogenous progesterone; cited from earlier work.
Substrate in data set [6]: C[C@]12CC[C@H]3[C@@H](CCC4=CC(=O)CC[C@@]43C)[C@@H]1CC[C@@H]2O
Briefly: 5α-reductase assay, rat placenta microsomes. It is filed as biochemical. To be noted: other: rat placenta microsomes; 37.0 °C. How it is done: as §3, §1, §2

Substrate in data set [7]: C[C@]12CC[C@H]3[C@@H](CCC4=CC(=O)CC[C@@]43C)[C@@H]1CC[C@@H]2O
Briefly: 5α-reductase assay, COS cell expressed rat type 1. To be noted: other: recombinant rat type 1; 37.0 °C. It is filed as biochemical. The method, then: as §1, §2

Substrate in data set [8]: C[C@]12CC[C@H]3[C@@H](CCC4=CC(=O)CC[C@@]43C)[C@@H]1CC[C@@H]2O
Briefly: 5α-reductase assay, COS cell expressed rat type 2. To be noted: other: rat type 2; 37.0 °C. It is filed as biochemical. How it is done:
as §1, §2

Several values for one entry are separate records, joined by “and”; a condition that tells them apart may be missing. Equal entries are not always repeated.

For `C[C@]12CC[C@@H](O)C[C@@H]1CC[C@@H]1[C@@H]2CC[C@]2(C)[C@@H](O)CC[C@@H]12` [Example 3α-Adiol, 5α-androstan-3α,17β-diol], the “mice in which parturition was induced” value in data set [1] is 93%. For the molecule `CC#C[C@]1(O)CC[C@H]2[C@@H]3CCC4=CC(=O)CCC4=C3[C@@H](c3ccc(N(C)C)cc3)C[C@@]21C` [RU-486, reference compound], the “mice in which parturition was induced” value in data set [1] is 100%. In the data set with parturition in the rat (only females completing delivery, 10 mg/kg), the “Mean Length of Gestation ± SD” value was 22.3 days and 22.3 ± 0.4 days. Also, the “number of females completing parturition” value came out at 7 in the data set on parturition in the rat (delivery day GD 22.0), 5 in the data set with parturition in the rat (delivery day GD 22.5) and 2 with parturition in the rat (delivery day GD 23.0). Moreover, the “induction of parturition” value in [2] is on record as “able to induce parturition”. For the molecule `CCO` [ethanol], in data set [3] (compared with ritodrine), the “effectiveness in preventing premature labor” value is on record as “as effective as ritodrine in preventing premature labor” and the “reduction in the incidence of fetal respiratory distress” value is listed as “does not produce a corresponding reduction in the incidence of fetal respiratory distress”. The term IC50 denotes the point on the concentration scale where inhibition reaches its midpoint. Turning to `CC(C)(C)NC(=O)[C@H]1CC[C@H]2[C@@H]3CC[C@H]4NC(=O)C=C[C@]4(C)[C@H]3CC[C@]12C` [finasteride, 17β-(N-tert-butylcarbamoyl)-3-oxo-4-aza-5α-androst-1-en-3-one], the “inhibition of the human type 2 enzyme” value in the data set with human type 2 enzyme is given as “potent inhibitor”. Moreover, the values for the 50% inhibitory concentration (IC50) (on rat type 2 5α-reductase; at rat type 1 5α-reductase; in data set [4]) were 1 nM, 13 nM and 11 nM, respectively.

For `O=S(=O)([O-])[O-].[Mg+2]` [magnesium sulfate], the “adverse effects at plasma concentrations above the therapeutic range” value in data set [3] (above 4 to 8 mg/dL) is “inhibition of cardiac conduction and neuromuscular transmission, respiratory depression and cardiac arrest”.

With `CC(=O)[C@H]1CC[C@H]2[C@@H]3CCC4=CC(=O)CC[C@]4(C)[C@H]3CC[C@]12C` [progesterone], in [5], the “effect on pregnancy and myometrial contractile activity” value is “prolong pregnancy and impair myometrial contractile activity”.

`CC(NCCc1ccc(O)cc1)C(O)c1ccc(O)cc1` (stereo not drawn) [ritodrine]: the “side effects” value in [3] is listed as “tachycardia, increased renin secretion, hyperglycemia (and reactive hypoglycemia in the infant)”. On to `CC(C)(C)NCC(O)c1ccc(O)c(CO)c1` (stereo not drawn) [salbutamol], for which, in data set [3], the “side effects” value was “side effects similar to those of ritodrine”. On to `CC(C)(C)NCC(O)c1cc(O)cc(O)c1` (stereo not drawn) [terbutaline], for which the “side effects” value in data set [3] is on record as “side effects similar to those of ritodrine”.

B1: 5α-reductase in rat placenta (Rattus norvegicus) (protein)
chain: T2 sequence (P24008 1-259)
notes: microsomes prepared from rat placenta; tissue Bioproducts for Science; host or cells: rat placenta (microsomes, 100,000×g pellet of homogenate)
For orientation: Km means the substrate concentration at which the rate is half of its maximum. B1: the Michaelis constant (Km) in [6] came to 5.2 µM.

B2: rat type 1 5α-reductase (Rattus norvegicus) (protein)
chain: T2 sequence (P24008 1-259)
notes: made in house; host or cells: COS cells
As for B2, the Km in [7] was determined as 1.7 µM.

B3: rat type 2 5α-reductase (Rattus norvegicus) (protein)
chain: T1 sequence (P31214 1-254)
notes: as for B2
For B3, in data set [8], the Michaelis-Menten constant (Km) turned out to be 0.15 µM.
